# Results as given in BindingDB's records for doi:10.7270/Q22R3Q4F (Broad Institute, 2010).
# Target: T1, Alkanal monooxygenase alpha chain (Vibrio harveyi, UniProt P07740)
# T1 sequence (P07740 whole entry): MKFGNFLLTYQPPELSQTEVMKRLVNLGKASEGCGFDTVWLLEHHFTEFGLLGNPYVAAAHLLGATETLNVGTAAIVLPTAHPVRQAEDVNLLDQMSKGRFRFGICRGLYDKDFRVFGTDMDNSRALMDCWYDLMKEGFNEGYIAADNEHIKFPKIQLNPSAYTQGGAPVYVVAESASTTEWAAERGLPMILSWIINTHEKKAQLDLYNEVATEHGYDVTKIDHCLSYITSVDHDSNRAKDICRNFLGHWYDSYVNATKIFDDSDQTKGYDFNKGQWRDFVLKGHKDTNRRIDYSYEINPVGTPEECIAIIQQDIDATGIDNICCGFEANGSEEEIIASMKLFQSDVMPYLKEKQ
# Experiment: Vibrio harveyi growth inhibition, confirmation, absorbance, dose retest (AID 2723)
row,Structure (SMILES),EC50
1,C=Cn1c(C(=O)O)ccc1-c1ccc(CC)cc1,> 160 µM
2,COc1cc(NC(=O)CN2C(=O)NC(c3ccccc3)(c3ccccc3)C2=O)cc(OC)c1 [MLS001176525],> 160 µM
3,CCc1ccc(S(=O)(=O)Nc2ccc(Br)cn2)cc1 [MLS001211346],> 160 µM
4,CCCc1ccc(S(=O)(=O)N(C)S(=O)(=O)c2ccc(F)cc2)cc1 [N-(4-fluorophenyl)sulfonyl-N-methyl-4-propylbenzenesulfonamide],7.78 µM
5,CN(C)S(=O)(=O)c1ccc(NC(=S)NC(=O)Cc2ccccc2)cc1 [N-[[4-(dimethylsulfamoyl)phenyl]carbamothioyl]-2-phenyl-ethanamide],> 160 µM
6,Cc1cccc(NS(=O)(=O)c2ccc(Oc3ccccc3)cc2)n1 [SMR000071466],> 160 µM
7,Cn1cnc(S(=O)(=O)Nc2ccc(OC(F)(F)F)cc2)c1 [SMR000314513],> 160 µM
